Measured values reported in ChEMBL document CHEMBL1153245, “A profile of the in vitro anti-tumor activity of imidazolium-based ionic liquids” (2010).

Legend:
Assay type in all cases: functional
MDA-MB-435 = test: Anticancer activity against human MDA-MB-435 cells assessed cell growth at 10 uM after 48 hrs by sulforhodamine B assay relative to control
UACC-257 = test: Anticancer activity against human UACC257 cells assessed cell growth at 10 uM after 48 hrs by sulforhodamine B assay relative to control
PC-3 = test: Anticancer activity against human PC3 cells assessed cell growth at 10 uM after 48 hrs by sulforhodamine B assay relative to control
SR = test: Anticancer activity against human SR cells assessed cell growth at 10 uM after 48 hrs by sulforhodamine B assay relative to control
MDA-MB-468 = test: Anticancer activity against human MDA-MB-468 cells assessed cell growth at 10 uM after 48 hrs by sulforhodamine B assay relative to control
NCI-H23 = test: Anticancer activity against human NCI-H23 cells assessed cell growth at 10 uM after 48 hrs by sulforhodamine B assay relative to control
NCI-H522 = test: Anticancer activity against human NCI-H522 cells assessed cell growth at 10 uM after 48 hrs by sulforhodamine B assay relative to control
SF-268 = test: Anticancer activity against human SF268 cells assessed cell growth at 10 uM after 48 hrs by sulforhodamine B assay relative to control
SNB-75 = test: Anticancer activity against human SNB75 cells assessed cell growth at 10 uM after 48 hrs by sulforhodamine B assay relative to control
IGROV-1 = test: Anticancer activity against human IGROV1 cells assessed cell growth at 10 uM after 48 hrs by sulforhodamine B assay relative to control
HOP-92 = test: Anticancer activity against human HOP92 cells assessed cell growth at 10 uM after 48 hrs by sulforhodamine B assay relative to control
DU-145 = test: Anticancer activity against human DU145 cells assessed cell growth at 10 uM after 48 hrs by sulforhodamine B assay relative to control
SK-OV-3 = test: Anticancer activity against human SKOV3 cells assessed cell growth at 10 uM after 48 hrs by sulforhodamine B assay relative to control
MDA-MB-231 = test: Anticancer activity against human MDA-MB-231 cells assessed cell growth at 10 uM after 48 hrs by sulforhodamine B assay relative to control
MCF7 = test: Anticancer activity against human MCF7 cells assessed cell growth at 10 uM after 48 hrs by sulforhodamine B assay relative to control
HCT-116 = test: Anticancer activity against human HCT116 cells assessed cell growth at 10 uM after 48 hrs by sulforhodamine B assay relative to control
OVCAR-4 = test: Anticancer activity against human OVCAR4 cells assessed cell growth at 10 uM after 48 hrs by sulforhodamine B assay relative to control
SK-MEL-28 = test: Anticancer activity against human SK-MEL-28 cells assessed cell growth at 10 uM after 48 hrs by sulforhodamine B assay relative to control
RXF 393 = test: Anticancer activity against human RXF393 cells assessed cell growth at 10 uM after 48 hrs by sulforhodamine B assay relative to control
CCRF-CEM = test: Anticancer activity against human CCRF-CEM cells assessed cell growth at 10 uM after 48 hrs by sulforhodamine B assay relative to control
ACHN = test: Anticancer activity against human ACHN cells assessed cell growth at 10 uM after 48 hrs by sulforhodamine B assay relative to control
SNB-19 = test: Anticancer activity against human SNB19 cells assessed cell growth at 10 uM after 48 hrs by sulforhodamine B assay relative to control
TK-10 = test: Anticancer activity against human TK10 cells assessed cell growth at 10 uM after 48 hrs by sulforhodamine B assay relative to control
NCI/ADR-RES = test: Anticancer activity against human NCI/ADR-RES cells assessed cell growth at 10 uM after 48 hrs by sulforhodamine B assay relative to control
SK-MEL-2 = test: Anticancer activity against human SK-MEL-2 cells assessed cell growth at 10 uM after 48 hrs by sulforhodamine B assay relative to control
HT-29 = test: Anticancer activity against human HT-29 cells assessed cell growth at 10 uM after 48 hrs by sulforhodamine B assay relative to control
CAKI-1 = test: Anticancer activity against human Caki1 cells assessed cell growth at 10 uM after 48 hrs by sulforhodamine B assay relative to control
K562 = test: Anticancer activity against human K562 cells assessed cell growth at 10 uM after 48 hrs by sulforhodamine B assay relative to control
HCC 2998 = test: Anticancer activity against human HCC2998 cells assessed cell growth at 10 uM after 48 hrs by sulforhodamine B assay relative to control
LOX IMVI = test: Anticancer activity against human LOXIMVI cells assessed cell growth at 10 uM after 48 hrs by sulforhodamine B assay relative to control
NCI-H226 = test: Anticancer activity against human NCI-H226 cells assessed cell growth at 10 uM after 48 hrs by sulforhodamine B assay relative to control
HL-60(TB) = test: Anticancer activity against human HL-60(TB) cells assessed cell growth at 10 uM after 48 hrs by sulforhodamine B assay relative to control
UO-31 = test: Anticancer activity against human UO31 cells assessed cell growth at 10 uM after 48 hrs by sulforhodamine B assay relative to control
HOP-62 = test: Anticancer activity against human HOP62 cells assessed cell growth at 10 uM after 48 hrs by sulforhodamine B assay relative to control
[1] = Anticancer activity against human RPMI8266 cells assessed cell growth at 10 uM after 48 hrs by sulforhodamine B assay relative to control
Malme-3M = test: Anticancer activity against human MALME-3M cells assessed cell growth at 10 uM after 48 hrs by sulforhodamine B assay relative to control
M14 = test: Anticancer activity against human M14 cells assessed cell growth at 10 uM after 48 hrs by sulforhodamine B assay relative to control
NCI-H460 = test: Anticancer activity against human NCI-H460 cells assessed cell growth at 10 uM after 48 hrs by sulforhodamine B assay relative to control
UACC-62 = test: Anticancer activity against human UACC62 cells assessed cell growth at 10 uM after 48 hrs by sulforhodamine B assay relative to control
SK-MEL-5 = test: Anticancer activity against human SK-MEL-5 cells assessed cell growth at 10 uM after 48 hrs by sulforhodamine B assay relative to control
SW-620 = test: Anticancer activity against human SW620 cells assessed cell growth at 10 uM after 48 hrs by sulforhodamine B assay relative to control
OVCAR-5 = test: Anticancer activity against human OVCAR5 cells assessed cell growth at 10 uM after 48 hrs by sulforhodamine B assay relative to control
T47D = test: Anticancer activity against human T47D cells assessed cell growth at 10 uM after 48 hrs by sulforhodamine B assay relative to control

CCCCCC[n+]1ccn(C)c1.O=S(=O)([N-]S(=O)(=O)C(F)(F)F)C(F)(F)F
Activity (MDA-MB-435): 93.37% | Activity (UACC-257): 87.47% | Activity (PC-3): 105.34% | Activity (SR): 126.57% | Activity (MDA-MB-468): 80.22% | Activity (NCI-H23): 89.09% | Activity (NCI-H522): 81.74% | Activity (SF-268): 109.15% | Activity (SNB-75): 94.84% | Activity (IGROV-1): 85.47% | Activity (HOP-92): 114.14% | Activity (DU-145): 117.36% | Activity (SK-OV-3): 95.29% | Activity (MDA-MB-231): 86.26% | Activity (MCF7): 106.75% | Activity (HCT-116): 80.77% | Activity (OVCAR-4): 82.57% | Activity (SK-MEL-28): 135.26% | Activity (RXF 393): 103.51% | Activity (CCRF-CEM): 121.99% | Activity (ACHN): 88.98% | Activity (SNB-19): 95.37% | Activity (TK-10): 124.14% | Activity (NCI/ADR-RES): 99.76% | Activity (SK-MEL-2): 102.62% | Activity (HT-29): 88.19% | Activity (CAKI-1): 66.14% | Activity (K562): 101.77% | Activity (HCC 2998): 90.7% | Activity (LOX IMVI): 92.45% | Activity (NCI-H226): 87.92% | Activity (HL-60(TB)): 112.14% | Activity (UO-31): 84.29% | Activity (HOP-62): 89.75% | Activity [1]: 125.38% | Activity (Malme-3M): 102.07% | Activity (M14): 100.39% | Activity (NCI-H460): 90.77% | Activity (UACC-62): 92.58% | Activity (SK-MEL-5): 78.78% | Activity (SW-620): 99.75% | Activity (OVCAR-5): 105.87%

Cn1cc[n+](CCO)c1.O=S(=O)([N-]S(=O)(=O)C(F)(F)F)C(F)(F)F
Activity (MDA-MB-435): 116.12% | Activity (UACC-257): 93.35% | Activity (PC-3): 86.93% | Activity (SR): 119.61% | Activity (MDA-MB-468): 108.29% | Activity (NCI-H23): 93.17% | Activity (NCI-H522): 90.32% | Activity (SF-268): 104.78% | Activity (SNB-75): 79.94% | Activity (IGROV-1): 89% | Activity (HOP-92): 74.53% | Activity (DU-145): 114.39% | Activity (SK-OV-3): 102.56% | Activity (MDA-MB-231): 104.59% | Activity (MCF7): 105.11% | Activity (HCT-116): 100.02% | Activity (OVCAR-4): 100.13% | Activity (SK-MEL-28): 125.37% | Activity (RXF 393): 95.99% | Activity (CCRF-CEM): 72.37% | Activity (ACHN): 97.02% | Activity (SNB-19): 93.36% | Activity (TK-10): 125.47% | Activity (NCI/ADR-RES): 92.39% | Activity (SK-MEL-2): 97.37% | Activity (HT-29): 112.28% | Activity (CAKI-1): 90.82% | Activity (K562): 80.37% | Activity (HCC 2998): 94.14% | Activity (LOX IMVI): 90.65% | Activity (NCI-H226): 101.7% | Activity (HL-60(TB)): 37.14% | Activity (UO-31): 80.89% | Activity (HOP-62): 90.22% | Activity [1]: 72.12% | Activity (T47D): 100.5% | Activity (Malme-3M): 121.81% | Activity (M14): 102.65% | Activity (NCI-H460): 114.83% | Activity (UACC-62): 100.11% | Activity (SK-MEL-5): 100.98% | Activity (SW-620): 103.41%

CCCCCCCCCCCC[n+]1ccn(C)c1.[Cl-]
Activity (MDA-MB-435): 7.98% | Activity (UACC-257): -12.38% | Activity (PC-3): 75.39% | Activity (SR): 103.6% | Activity (MDA-MB-468): -42.1% | Activity (NCI-H23): 28.79% | Activity (NCI-H522): -19.92% | Activity (SF-268): 58.74% | Activity (SNB-75): -10.6% | Activity (HOP-92): 51.88% | Activity (DU-145): 6.6% | Activity (SK-OV-3): 44.54% | Activity (MDA-MB-231): 41.54% | Activity (MCF7): 3.94% | Activity (HCT-116): 17.62% | Activity (OVCAR-4): 22.69% | Activity (SK-MEL-28): 34.86% | Activity (RXF 393): -20.81% | Activity (CCRF-CEM): 110.51% | Activity (ACHN): 45.02% | Activity (SNB-19): 45.54% | Activity (TK-10): -1.53% | Activity (NCI/ADR-RES): 82.17% | Activity (SK-MEL-2): 13.06% | Activity (HT-29): 12.35% | Activity (CAKI-1): 28.77% | Activity (K562): 64.21% | Activity (HCC 2998): 31.07% | Activity (LOX IMVI): 23.94% | Activity (NCI-H226): 30.42% | Activity (HL-60(TB)): 51.9% | Activity (UO-31): 65.71% | Activity (HOP-62): 38.17% | Activity [1]: 116.34% | Activity (T47D): 24.65% | Activity (Malme-3M): 24.55% | Activity (M14): 8.94% | Activity (NCI-H460): 23.64% | Activity (UACC-62): 31.07% | Activity (SK-MEL-5): -33.13% | Activity (SW-620): 44.11% | Activity (OVCAR-5): 45.62%
